The values below come from patent US7259172B2, “Inhibitors of β-lactamase” (priority 1999, dated 2007).

Counter-ions that a name gives are not always drawn. Like-named read-outs stand apart in the source and are kept apart here.

In series [1] the test system is Enterobacter cloacae [ATCC #23355]. It is filed as cell-based. Conditions: ratio antibiotic MIC without/with inhibitor. The text has this: An increasing number of organisms produce enzymes that inhibit the actions of β-lactam antibiotics, so-called β-lactamases. […] The Minimum Inhibitory Concentration (MIC) test determines the lowest concentration of an antibiotic at which no visible bacterial growth occurs. This test permits comparisons to be made between bacterial growth in the presence of antibiotic alone (control) and bacterial growth in the presence of both an antibiotic and a novel (test) compound.
(§1) Frozen bacterial stocks were thawed to room temperature, and a few drops were placed on an appropriate plate; chocolate agar was used for H. influenzae, blood agar was used for all others. The plates were incubated overnight at 37° C. in air, except for H. influenzae, which was incubated in a CO2 incubator. The cultures were subcultured the following day, and the subcultures were again incubated overnight
A sterile loop was touched to 3 colonies and used to inoculate 1 mL of Mueller-Hinton Broth (MHB). […] 5 μL of the resultant inoculum solution contained ˜4×10^4 CFU/mL. Confirmation of the inoculum was performed by preparing a serial dilution to give 100 μL of a 5000-fold dilution, all of which was then plated onto an appropriate plate.
Each plate included 2 wells with no bacterial inoculum (negative control) and 2 wells with no test compound and no antibiotic (positive control). The plate was covered and incubated with gentle shaking for 16-20 hours at 37° C. in air (CO2 for H. influenzae). Absorbance was read at 540 nm (Multiskan Titertek mcc/340). Bacterial growth was scored as follows:
(§2) In some cases, the determination of MIC in the presence of test compound was performed at more than one concentration of the test compound.
The impact of the novel β-lactamase inhibitors is expressed as the ratio of the MIC determined in the absence of β-lactamase inhibitor to the MIC determined in the presence of the specified concentration of the β-lactamase inhibitor test compound.

The target of series [2] is P99 β-lactamase (class C) (Enterobacter cloacae, UniProt P05364). Briefly: biochemical. The protocol: Enzyme activity against the commercially available substrate, nitrocefin, was measured in the presence of various inhibitor concentrations. The P99 β-lactamase enzyme (1 mg/mL) was dissolved in 20 mM MOPS buffer at pH 7.50, and diluted 200-fold in the same buffer containing 0.1% BSA. Nitrocefin was stored as a 100 μM stock solution in 20 mM MOPS at pH 7.5. Stock solutions of test compounds were prepared in 10 mM MOPS at pH 7.5 (approximately 1 mg/mL)
Chain of P99 β-lactamase (class C) (P05364 21-381): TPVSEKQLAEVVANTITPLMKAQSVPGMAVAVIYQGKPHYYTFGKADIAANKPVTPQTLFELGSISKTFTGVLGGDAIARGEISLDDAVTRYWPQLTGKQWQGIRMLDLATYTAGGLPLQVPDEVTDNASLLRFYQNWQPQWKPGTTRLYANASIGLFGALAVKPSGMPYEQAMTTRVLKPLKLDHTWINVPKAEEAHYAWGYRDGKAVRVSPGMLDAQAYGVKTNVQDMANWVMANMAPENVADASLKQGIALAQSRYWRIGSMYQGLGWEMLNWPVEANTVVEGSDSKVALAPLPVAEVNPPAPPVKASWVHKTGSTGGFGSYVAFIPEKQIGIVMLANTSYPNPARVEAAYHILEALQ
The reaction at 25° C. was followed spectrophotometrically at 482 nm. IC50 values were determined from the dose-response plots of the initial rates vs. inhibitor concentration

Series [3] deals with Staphylococcus aureus [MGH:MA #50848]. Briefly: Antibiotic MIC in presence and absence of β-lactamase inhibitor (synergy). It is filed as cell-based. The note with it: ratio antibiotic MIC without/with inhibitor; inhibitor 10 μg/mL.
Text: (§3) An increasing number of organisms produce enzymes that inhibit the actions of β-lactam antibiotics, so-called β-lactamases. The “strength” of β-lactam antibiotics can be improved by pairing them with compounds that inhibit bacterial enzyme β-lactamases. The Minimum Inhibitory Concentration (MIC) test determines the lowest concentration of an antibiotic at which no visible bacterial growth occurs. This test permits comparisons to be made between bacterial growth in the presence of antibiotic alone (control) and bacterial growth in the presence of both an antibiotic and a novel (test) compound.
(§4) • β-lactamase positive strains • β-lactam antibiotics • β-lactamase inhibitor compounds • appropriate bacterial growth medium β-Lactamase Positive Strains • Klebsiella oxytoca [ATCC#51983] • Staphylococcus aureus [MGH: MA#50848] • Enterococcus faecalis [ATCC#49757] • Enterobacter cloacae [ATCC#23355] • Haemophilus influenzae [ATCC#43163] β-Lactam antibiotics
as §1
(§5) A sterile loop was touched to 3 colonies and used to inoculate 1 mL of Mueller-Hinton Broth (MHB). The bacterial solution was diluted 18.8-fold (20 μL of bacterial solution in […] of broth). 5 μL of the resultant inoculum solution contained ˜4×10^4 CFU/mL. Confirmation of the inoculum was performed by preparing a serial dilution to give 100 μL of a 5000-fold dilution, all of which was then plated onto an appropriate plate. After incubation overnight at 37° C., the plate had 75-150 colonies.
(§6) In each well of a 96-well microtiter plate was combined 5 μL of bacterial inoculum, 90 μL of antibiotic dilutions, and 5 μL of test compound (or media for determination of the MIC of the antibiotic in the absence of test compound). Each plate included 2 wells with no bacterial inoculum (negative control) and 2 wells with no test compound and no antibiotic (positive control). The plate was covered and incubated with gentle shaking for 16-20 hours at 37° C. in air (CO2 for H. influenzae). Absorbance was read at 540 nm (Multiskan Titertek mcc/340). Bacterial growth was scored as follows:
as §2
(§7) The impact of the novel β-lactamase inhibitors is expressed as the ratio of the MIC determined in the absence of β-lactamase inhibitor to the MIC determined in the presence of the specified concentration of the β-lactamase inhibitor test compound. […]

Series [4] relates to Haemophilus influenzae [ATCC #43163]. The description is as above. The series is classed as cell-based. Conditions: ratio antibiotic MIC without/with inhibitor; inhibitor 10 μg/mL.
Text: as §3, §4, §1, §5, §6, §2, §7

For series [5] the following is noted: Table 1.
[6] abbreviates: Class C β-lactamase [P99], Table 1, read-out: IC50 (μM) “C”.

On to `N.O=[N+]([O-])c1ccc(OP(=O)(O)C(Cc2ccccc2)NS(=O)(=O)c2cccs2)cc1` (centres unmarked) [Compound 44, [2-Phenyl-1-(thiophene-2-sulfonylamino)-ethyl]-phosphonic acid mono-(4-nitrophenyl) ester ammonium salt], for which the “Synergy Class C E. Cl” value in series [1] (inhibitor 1 μg/mL) and in series [1] (inhibitor 10 μg/mL) was 2/2 in each case. Also, the midpoint of inhibition in series [2], the IC50, lay at 192 µM. Further, in series [3], the “Synergy Class A St. A.” value is on record as 1. The “Synergy Class A H. In.” value in series [4] is 1.
For the molecule `N.O=P(O)(Oc1cccnc1Cl)C(Cc1ccccc1)NS(=O)(=O)c1cccs1` (centres unmarked) [Compound 46, [2-Phenyl-1-(thiophene-2-sulfonylamino)-ethyl]-phosphonic acid mono-(2-chloropyridin-3-yl) ester ammonium salt], the “Synergy Class C E. Cl” value in series [1] (inhibitor 1 μg/mL) and in series [1] (inhibitor 10 μg/mL) was 1/1 throughout. Moreover, it took 188 µM to reach half-maximal inhibition in series [2] (IC50). Also, the “Synergy Class A St. A.” value in series [3] is 1. In addition, the “Synergy Class A H. In.” value in series [4] was determined as 1.
With `CN(CP(=O)(O)Oc1ccc([N+](=O)[O-])cc1)S(=O)(=O)c1cccs1.N` [Compound 47, [(2-Thiophenesulfonyl-N-methylamino)methyl]-phosphonic acid mono-(4-nitrophenyl) ester ammonium salt], the “Synergy Class C E. Cl” value in series [1] (inhibitor 10 μg/mL) is 2. The IC50 – broadly, the midpoint of a concentration-inhibition curve – in series [2] was determined as 276 µM. Besides, the “Synergy Class A H. In.” value in series [4] was determined as 1.
For the molecule `CC(C)C(NS(=O)(=O)c1cccs1)P(=O)(O)Oc1ccc([N+](=O)[O-])cc1` (centres unmarked) [Compound 52, [2-Methyl-1-thiophene-2-sulfonylamino)-propyl]-phosphonic acid mono-(4-nitrophenyl) ester ammonium salt], the entries for the “Synergy Class C E. Cl” value in series [1] (inhibitor 1 μg/mL) and in series [1] (inhibitor 10 μg/mL) were 2 and 4, respectively. The same molecule returned an IC50 in series [2] of 1400 µM. Moreover, the “Synergy Class A St. A.” value in series [3] is reported as 1. Also, the “Synergy Class A H. In.” value in series [4] is listed as 1.
For the molecule `N.O=[N+]([O-])c1ccc(OP(=O)(O)C(NS(=O)(=O)c2cccs2)c2ccccc2)cc1` (centres unmarked) [Compound 53, [Phenyl-(thiophene-2-sulfonylamino)-methyl]-phosphonic acid mono-(4-nitrophenyl) ester ammonium salt], the “Synergy Class C E. Cl” value in series [1] (inhibitor 1 μg/mL) and in series [1] (inhibitor 10 μg/mL) was 2/2 each time. For the same molecule, in series [2], the IC50 stood at 363 µM. In addition, in series [3], the “Synergy Class A St. A.” value was found to be 1. Further, the “Synergy Class A H. In.” value in series [4] turned out to be 1.
For the molecule `CC(C)C(NS(=O)(=O)c1cccs1)P(=O)(O)Oc1cccnc1Cl.N` (centres unmarked) [Compound 54, [2-Methyl-1-(thiophene-2-sulfonylamino)-propyl]-phosphonic acid mono-(2-chloropyridin-3-yl) ester ammonium salt], the results for the “Synergy Class C E. Cl” value in series [1] (inhibitor 1 μg/mL) and in series [1] (inhibitor 10 μg/mL) were 1 and 2, respectively. For the same molecule, 1800 µM corresponded to half-maximal inhibition in series [2] (IC50). Also, the “Synergy Class A St. A.” value in series [3] came out at 1. In series [4], the “Synergy Class A H. In.” value was determined as 1.
On to `N.O=P(O)(Oc1cccnc1Cl)C(NS(=O)(=O)c1cccs1)c1ccccc1` (centres unmarked) [Compound 60, [Phenyl-(thiophene-2-sulfonylamino)-methyl]-phosphonic acid mono-(2-chloropyridin-3-yl) ester ammonium salt], for which the “Synergy Class C E. Cl” value in series [1] (inhibitor 1 μg/mL) came out at 1; in series [1] (inhibitor 10 μg/mL), 2. This molecule also registered an IC50 in series [2] of 603 µM. Besides, the “Synergy Class A St. A.” value in series [3] was 1. For the same molecule, the “Synergy Class A H. In.” value in series [4] is listed as 1.
As for `CN(CP(=O)(O)Oc1ccc([N+](=O)[O-])cc1)S(=O)(=O)c1cc2ccccc2s1.N` [Compound 142, [(2-Benzothiophenesulfonyl-N-methylamino)-methyl]-phosphonic acid mono-(4-nitrophenyl) ester ammonium salt], the “Synergy Class C E. Cl” value in series [1] (inhibitor 10 μg/mL) turned out to be 2. This molecule gave an IC50 in series [2] of 1300 µM. The logP (as a rule, the decadic logarithm of the partition coefficient of the neutral form, usually between octanol and water) in “physchem” is -0.091.
For `O=[N+]([O-])c1ccc(OP(=O)(O)CN(Cc2ccccc2)S(=O)(=O)c2cc3ccccc3s2)cc1` [Compound 145, (2-Benzothiophenesulfonyl-N-benzylamino)-methyl]-phosphonic acid mono-(4-nitrophenyl) ester ammonium salt], the “Synergy Class C E. Cl” value in series [1] (inhibitor 10 μg/mL) worked out at 4. Further, the IC50 in series [2] stood at 94 µM. In the series “physchem”, this molecule returned a logP of 0.86.
The molecule `O=[N+]([O-])c1ccc(OP(=O)(O)CNS(=O)(=O)c2ccccc2)cc1` [compound 7] returned an IC50 in series [2] of 4 µM.
In turn, `O=[N+]([O-])c1ccc(OP(=O)(O)CNS(=O)(=O)c2ccc([N+](=O)[O-])cc2)cc1` [compound 12] displayed an IC50 in series [2] of 10 µM.
`O=[N+]([O-])c1ccc(OP(=O)(O)CNS(=O)(=O)c2cccs2)cc1` [compound 15] registered an IC50 in series [2] of 18 µM.
For the molecule `O=[N+]([O-])c1ccc(OP(=O)(O)CNS(=O)(=O)c2ccccc2Br)cc1` [compound 23], in series [2], it took 14 µM to reach half-maximal inhibition (IC50).
The same measure, in the same setting: under `O=[N+]([O-])c1ccc(OP(=O)(O)CNS(=O)(=O)c2ccccn2)cc1` [compound 31] stands 136 µM; under `O=P(O)(CNS(=O)(=O)c1cccs1)Oc1cccc(Cl)c1` [compound 48], 189 µM.
In the case of `O=P(O)(CNS(=O)(=O)c1ccsc1)Oc1cccnc1` [compound 55], it took 3600 µM to reach half-maximal inhibition in series [2] (IC50).
In series [2], `O=[N+]([O-])c1ccc(OP(=O)(O)CNS(=O)(=O)c2cc3ccccc3s2)cc1` [compound 77] yielded an IC50 of 0.4 µM.
On the same count and under the same terms, under `CN(C)c1cccc(OP(=O)(O)CNS(=O)(=O)c2cccs2)c1` [compound 78] stands 3000 µM.
Consider `O=[N+]([O-])c1ccc(OP(=O)(O)NNS(=O)(=O)c2ccccc2)cc1` [compound 189], for which the IC50 in series [2] (setting [6]) is 62 µM.
Regarding “[(2-Benzothiophenesulfonyl-N-ethylamino)-methyl]-phosphonic acid mono-(4-nitrophenyl) ester ammonium salt [Compound 144]”, in series [2] (setting [6]), the IC50 is 463 µM. Further, in series [5], the Log P (as a rule, a log measure of how a compound divides between an organic and an aqueous phase) is −0.036.
Consider “[(2-Benzothiophenesulfonyl-N-phenylethylamino)-methyl]-phosphonic acid mono-(4-nitrophenyl) ester ammonium salt [Compound 143]”, for which the IC50 in series [2] (setting [6]) stood at 133 µM. Besides, in series [5], the “Log P” value came to 1.17.
